17 compounds from ChEMBL document CHEMBL1143922, “Pharmacophore identification of Raf-1 kinase inhibitors” (Bioorg Med Chem Lett, 2008) can be followed below.

pIC50: −log10 of the molar value.

For this experiment, the target named is RAF proto-oncogene serine/threonine-protein kinase (Homo sapiens, UniProt P04049). The experiment can be described thus: Inhibition of Raf1 kinase.
RAF proto-oncogene serine/threonine-protein kinase, sequence (P04049 whole entry): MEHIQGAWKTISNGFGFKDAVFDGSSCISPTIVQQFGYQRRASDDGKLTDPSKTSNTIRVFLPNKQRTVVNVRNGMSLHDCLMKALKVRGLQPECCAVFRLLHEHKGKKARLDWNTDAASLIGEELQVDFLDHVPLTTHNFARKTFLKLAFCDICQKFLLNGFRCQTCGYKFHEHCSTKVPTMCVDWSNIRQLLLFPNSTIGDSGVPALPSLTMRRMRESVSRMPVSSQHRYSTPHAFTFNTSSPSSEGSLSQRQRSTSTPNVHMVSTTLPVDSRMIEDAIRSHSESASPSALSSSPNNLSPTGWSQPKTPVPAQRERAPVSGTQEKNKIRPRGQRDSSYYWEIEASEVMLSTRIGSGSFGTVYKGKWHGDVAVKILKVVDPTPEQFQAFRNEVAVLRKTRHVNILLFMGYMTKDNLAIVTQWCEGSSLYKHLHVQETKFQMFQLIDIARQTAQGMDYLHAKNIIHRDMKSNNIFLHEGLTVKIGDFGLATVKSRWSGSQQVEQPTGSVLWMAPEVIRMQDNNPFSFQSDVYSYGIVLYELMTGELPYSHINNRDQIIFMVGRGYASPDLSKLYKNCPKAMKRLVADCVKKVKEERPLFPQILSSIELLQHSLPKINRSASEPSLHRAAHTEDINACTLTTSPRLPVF

As usually defined, the pIC50 is −log10 of the IC50, conventionally taken in molar units. The compound `CNC(=O)c1cncc(/C=C/c2c(Cl)cccc2Cl)c1` [GW445014X] gave a pIC50 of 6.60.
Regarding `COC(=O)c1nc(C(C)(C)C)sc1NC(=O)Nc1ccc(C)cc1`, the pIC50 is 4.60.
The figure for `CC(C)(C)c1nnc(NC(=O)Nc2ccc(Oc3ccncc3)cc2)o1` is 5.20.
Regarding `Cc1cc(-c2ccccn2)cc(C)c1/C=C/c1cncc(-c2nn[nH]n2)c1`, the pIC50 is 7.00.
Compound `CNC(=O)c1cncc(/C=C/c2c(C)cccc2C)c1` [GW445012X] gave a pIC50 of 6.60.
The figure for `NC(=O)c1cc(Oc2ccc(NC(=O)Nc3ccc(Cl)c(C(F)(F)F)c3)cc2)ccn1` is 7.89; for `CNC(=O)Oc1cc(C)c(/C=C/c2cncc(C(=O)O)c2)c(C)c1` it is 8.22; for `Cc1cccc(C)c1/C=C/c1cncc(C#N)c1` it is 6.00.
The figure for `CNC(=O)Oc1cc(C)c(/C=C/c2cncc(C(=O)NC)c2)c(C)c1` [GW432441X] is 8.00; for `CN(c1ccncc1)c1ccc(NC(=O)Nc2cc(C(C)(C)C)on2)cc1` it is 5.46; for `CNC(=O)Oc1cc(C)c(/C=C/c2cncc(C#N)c2)c(C)c1` it is 7.40.
In turn, `Oc1cc(-c2nc(-c3ccccc3)[nH]c2-c2ccncc2)ccc1Cl` showed a pIC50 of 8.85.
Compound `CNC(=O)Oc1cc(C)c(/C=C/c2cncc(C(N)=O)c2)c(C)c1` gave a negative logarithm of the IC50 (pIC50) of 8.15.
Consider `CC(C)(C)c1nnc(NC(=O)Nc2ccc(Oc3ccncc3)cc2)s1`, for which the pIC50 was 5.07.
In turn, `Cc1cc(-c2cccnc2)cc(C)c1/C=C/c1cncc(-c2nn[nH]n2)c1` gave a pIC50 of 6.20.
In turn, `CC(C)(C)c1cc(NC(=O)Nc2ccc(Oc3ccc(C(=O)O)cc3)cc2)no1` showed a pIC50 of 5.20.
`Cc1cc(O)cc(C)c1/C=C/c1cncc(C(N)=O)c1` [GW435821X] showed a pIC50 of 6.80.
